Data: patent publication US20070128217A1 (priority 2003, published 2007)

What was measured:
[1] = tested on: antibodies in sera from SARS patients (sera 1a, 1b, 2, 6, 37, 62, London, SARS-yellow, SARS-green); type: binding, human; design: Binding of serum 6 to linear peptides of protein X1 of SARS-CoV Urbani / Binding of serum 37 to linear peptides of protein X1 of SARS-CoV Urbani / Binding of serum 6 to looped/cyclic peptide (PEPSCAN-ELISA) / Binding of serum 37 to looped/cyclic peptide (PEPSCAN-ELISA) / Binding of serum 37 to looped/cyclic peptides of protein X1 of SARS-CoV Urbani / Binding of serum 6 to linear peptides of protein X2 / Binding of serum 37 to linear peptides of protein X2 / Binding of serum 37 to looped/cyclic peptides of protein X2 of SARS-CoV Urbani / Binding of serum 6 to linear peptides of protein M of SARS-CoV Urbani / Binding of serum 37 to linear peptides of protein M of SARS-CoV Urbani / Binding of serum 6 to looped/cyclic peptides of protein M of SARS-CoV Urbani / Binding of serum 37 to looped/cyclic peptides of protein M of SARS-CoV Urbani / Binding of serum 6 to linear peptides of protein X3 of SARS-CoV Urbani / Binding of serum 37 to linear peptides of protein X3 of SARS-CoV Urbani / Binding of serum 37 to looped/cyclic peptides of protein X3 of SARS-CoV Urbani / Binding of serum 6 to linear peptides of protein X4 of SARS-CoV Urbani / Binding of serum 37 to linear peptides of protein X4 of SARS-CoV Urbani / Binding of serum 37 to looped/cyclic peptides of protein X4 of SARS-CoV Urbani / Binding of serum 6 to linear peptides of protein X5 of SARS-CoV Urbani / Binding of serum 37 to linear peptides of protein X5 of SARS-CoV Urbani / Binding of serum 37 to looped/cyclic peptides of protein X5 of SARS-CoV Urbani / Binding of serum 6 to linear peptides of protein N of SARS-CoV Urbani / Binding of serum 37 to linear peptides of protein N of SARS-CoV Urbani / Binding of serum 6 to linear peptide (PEPSCAN-ELISA) / Binding of serum 1a to looped/cyclic peptides of protein N of SARS-CoV Urbani / Binding of serum 1b to looped/cyclic peptides of protein N of SARS-CoV Urbani / Binding of serum 2 to looped/cyclic peptides of protein N of SARS-CoV Urbani / Binding of serum 6 to looped/cyclic peptides of protein N of SARS-CoV Urbani / Binding of serum 37 to looped/cyclic peptides of protein N of SARS-CoV Urbani / Binding of serum 62 to looped/cyclic peptides of protein N of SARS-CoV Urbani / Binding of serum London to looped/cyclic peptides of protein N of SARS-CoV Urbani / Binding of serum SARS-green to looped/cyclic peptides of protein N of SARS-CoV Urbani: unit not given here
[2] = tested on: control sera (pooled serum of ten healthy LUMC hospital workers; commercial negative donor pooled serum from the Dutch bloodbank); type: binding, human; design: Binding of Control serum LUMC to linear peptides / Binding of Control serum Blood-bank to linear peptides / Binding of Control serum LUMC to looped peptides / Binding of Control Serum Blood-Bank to Looped peptides / Binding of Control serum LUMC to linear peptides of the protein M of SARS-CoV Urbani / Binding of Control serum Blood-bank to linear peptides of the protein M of SARS-CoV Urbani / Binding of Control serum LUMC to looped peptides of the protein M of SARS-CoV Urbani / Binding of Control Serum Blood-Bank to Looped peptides of the protein M of SARS-CoV Urbani: unit not given here
[3] = tested on: rabbit serum obtained by immunizing a rabbit with the SARS-CoV strain Frankfurt 1; type: binding; design: Binding of a rabbit serum to linear peptides / Binding of a rabbit serum to looped peptides / Rabbit serum linear peptides / Rabbit serum looped peptides / Binding of a rabbit serum to linear peptides of protein N of SARS-CoV Urbani (Rabbit serum linear peptides) / Binding of a rabbit serum to looped/cyclic peptides of protein N of SARS-CoV Urbani (Rabbit serum looped peptides): unit not given here

Sequence	Binding of serum 1a to looped/cyclic peptides of protein X2 of SARS-CoV Urbani [1]	Binding of serum 1b to looped/cyclic peptides of protein X2 of SARS-CoV Urbani [1]	Binding of serum 2 to looped/cyclic peptides of protein X2 of SARS-CoV Urbani [1]	Binding of serum 6 to looped/cyclic peptides of protein X2 of SARS-CoV Urbani [1]	Binding of serum 37 to looped/cyclic peptides of protein X2 of SARS-CoV Urbani [1]	Binding of serum 62 to looped/cyclic peptides of protein X2 of SARS-CoV Urbani [1]	Binding of serum London to looped/cyclic peptides of protein X2 of SARS-CoV Urbani [1]	Binding of serum SARS-green to looped/cyclic peptides of protein X2 of SARS-CoV Urbani [1]	Binding of serum SARS-yellow to looped/cyclic peptides of protein X2 of SARS-CoV Urbani [1]	Binding of Control Serum Blood-Bank to Looped peptides [2]	Binding of Control serum Blood-bank to linear peptides [2]	Binding of Control serum LUMC to linear peptides [2]	Binding of Control serum LUMC to looped peptides [2]	Binding of a rabbit serum to linear peptides [3]	Binding of a rabbit serum to looped peptides [3]	further results
HITMTTVYHITVSQI	0.6	0.6	0.3	0.3	0.6	0.7	0.2	0.4	0.5	0.7	0.5	0.5	0.6	0.7	0.4	Binding of serum 1a to linear peptides of protein X2 [1]: 0.6; Binding of serum 1b to linear peptides of protein X2 [1]: 0.6; Binding of serum 2 to linear peptides of protein X2 [1]: 0.5; Binding of serum 6 to linear peptides of protein X2 [1]: 0.4; Binding of serum 37 to linear peptides of protein X2 [1]: 0.6; Binding of serum 62 to linear peptides of protein X2 [1]: 0.3; Binding of serum London to linear peptides of protein X2 [1]: 0.4; Binding of serum SARS-green to linear peptides of protein X2 [1]: 0.2; Binding of serum SARS-yellow to linear peptides of protein X2 [1]: 0.7
HKKVSTNLCTHSFRK	0.6	0.4	0.8	0.6	0.5	0.7	0.3	0.3	0.6	0.5	0.8	0.9	0.8	0.4	0.1	Recognition of the peptide by sera of SARS-CoV infected individuals, and form (linear, looped/cyclic) in which it is recognized [1]: recognized in linear form
HLLLVAAGMEAQFLY										0.6	0.6	0.7	0.4	0.5	0.4	Binding of serum 1a to linear peptides of protein X1 of SARS-CoV Urbani [1]: 0.9; Binding of serum 1a to looped/cyclic peptide (PEPSCAN-ELISA) [1]: 0.5; Binding of serum 1b to linear peptides of protein X1 of SARS-CoV Urbani [1]: 0.7; Binding of serum 1b to looped/cyclic peptide (PEPSCAN-ELISA) [1]: 0.6; Binding of serum 2 to linear peptides of protein X1 of SARS-CoV Urbani [1]: 0.6; Binding of serum 2 to looped/cyclic peptide (PEPSCAN-ELISA) [1]: 0.6; Binding of serum 6 to linear peptides of protein X1 of SARS-CoV Urbani [1]: 0.5; Binding of serum 6 to looped/cyclic peptide (PEPSCAN-ELISA) [1]: 0.1; Binding of serum 37 to linear peptides of protein X1 of SARS-CoV Urbani [1]: 0.7; Binding of serum 37 to looped/cyclic peptide (PEPSCAN-ELISA) [1]: 0.6; Binding of serum 62 to linear peptides of protein X1 of SARS-CoV Urbani [1]: 0.7; Binding of serum 62 to looped/cyclic peptide (PEPSCAN-ELISA) [1]: 0.6; Binding of serum London to linear peptides of protein X1 of SARS-CoV Urbani [1]: 0.3; Binding of serum London to looped/cyclic peptide (PEPSCAN-ELISA) [1]: 0.2; Binding of serum SARS-green to linear peptides of protein X1 of SARS-CoV Urbani [1]: 0.2; Binding of serum SARS-green to looped/cyclic peptide (PEPSCAN-ELISA) [1]: 0.4; Binding of serum SARS-yellow to linear peptides of protein X1 of SARS-CoV Urbani [1]: 0.6; Binding of serum SARS-yellow to looped/cyclic peptide (PEPSCAN-ELISA) [1]: 0.3
